Assay results as given in US5654320A, “Indazolecarboxamides” (Eli Lilly and Company, priority 1995, dated 1997).
Where a name gives a salt, the structure may show the parent alone.

Molecular target: T1, 5-HT4 receptor (Rattus norvegicus, UniProt Q62758)
T1 construct: esophagus smooth muscle, freshly removed from male Wistar rats; from tissue; host or cells: esophagus smooth muscle of male Wistar rats
Test: 5-HT4 receptor antagonism in carbamylcholine-contracted isolated esophagus smooth muscle (antagonism of serotonin-induced relaxation)
Parameters: species or system male Wistar rats
Details: not given
Method: The test was carried out in esophagus smooth muscle, freshly removed from male Wistar rats weighing 250-300 g each. The rats were killed by cervical dislocation, and the esophagus was removed and dissected free of connective tissue. The esophagi were used as longitudinal preparations--obtaining two preparations from each animal. The tissues were tied with thread at each end with the lower end being tied to a stationary glass rod and the upper end to a force transducer.
Tissues were mounted in organ baths containing 10 mL of modified Krebs' solution of the following composition (millimolar) NaCl 118.2; KCl 4.6; CaCl2.2H2 O 1.6; KH2 PO4 1.2; MgSO4 1.2; dextrose 10.0; and NaHCO3 24.8. Tissue bath solutions were maintained at 37° C. and aerated with 95% O2 -5% CO2. Tissues were placed under optimum resting force, 1 g, and were allowed to equilibrate for 1 hr before exposure to drugs. Isometric contractions were recorded as changes in grams of force on the Modular Instruments Inc. (Malvern, Pa.) model M4000 data acquisition system with Sensotec (Columbus, Ohio) model MBL 5514-02 transducers.
For studies with partial agonists or antagonists, tissues were preincubated with vehicle or antagonist for 45 min. All drugs were prepared daily in deionized water and kept on ice during the course of the experiment. The tissues were contracted by incubation with 10^-7 -10^-5 M carbamylcholine, and were relaxed by the addition of serotonin at 10^-8 -10^-10 M, which treatment relaxed the tissue and reduced the contraction caused by carbamylcholine. Addition of a compound of the present invention antagonized the serotonin response and reduced the observed relaxations of the tissue. Repeated tests of each compound at various concentrations were carried out, and the concentration that caused a two-fold shift of the relaxation curve was calculated. That concentration is reported here as the negative logarithm. In each case, the SEM of the data has been calculated and is shown below, as is the number of experiments carried out with each compound.

T1 sequence (Q62758 whole entry): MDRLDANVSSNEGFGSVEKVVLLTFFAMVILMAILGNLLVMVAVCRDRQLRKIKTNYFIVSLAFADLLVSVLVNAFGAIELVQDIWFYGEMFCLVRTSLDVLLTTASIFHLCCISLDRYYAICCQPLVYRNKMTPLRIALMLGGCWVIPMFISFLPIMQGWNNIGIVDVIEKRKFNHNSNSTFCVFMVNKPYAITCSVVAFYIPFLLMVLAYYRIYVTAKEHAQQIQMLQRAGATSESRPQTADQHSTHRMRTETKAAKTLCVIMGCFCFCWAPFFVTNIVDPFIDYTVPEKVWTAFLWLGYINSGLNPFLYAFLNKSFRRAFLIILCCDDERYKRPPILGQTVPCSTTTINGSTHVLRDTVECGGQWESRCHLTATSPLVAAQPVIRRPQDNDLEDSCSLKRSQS

`CC(C)n1nc(C(=O)NCCN2CCCCC2)c2ccccc21` [Example 2, N-[2-(1-piperidinyl)ethyl]-1-(2-propyl)-1H-indazole-3-carboxamide hydrochloride] and `CC(C)n1nc(C(=O)NCCN2CCCCCC2)c2ccccc21` [Example 12, N-[2-(1-hexamethyleneiminyl)ethyl]-1-(2-propyl)-1H-indazole-3-carboxamide hydrochloride] are the same in Kb: 10 nM for the first, 10 nM for the second.

`CC(C)n1nc(C(=O)NCCCN2CCCCC2)c2ccccc21` [Example 4, N-[3-(1-piperidinyl)propyl]-1-(2-propyl)-1H-indazole-3-carboxamide hydrochloride] and `CC(C)n1nc(C(=O)NCCCCN2CCCCC2)c2ccccc21` [Example 6, N-[4-(1-piperidinyl)butyl]-1-(2-propyl)-1H-indazole-3-carboxamide oxalate] are within 1.5-fold of each other in Kb: 7.94 nM for the first, 6.31 nM for the second.

First: CC(C)n1nc(C(=O)NCCN2CCC(NC(=O)OCc3ccccc3)CC2)c2ccccc21 [Example 8, N-[2-(4-benzyloxycarbonylamino-1-piperidinyl)ethyl]-1-(2-propyl)-1H-indazole-3-carboxamide oxalate]
Second: CC(C)n1nc(C(=O)NCCN2CCC(NC(=O)Cc3ccccc3)CC2)c2ccccc21 [Example 26, N-[2-(4-benzylcarbonylamino-1-piperidinyl)ethyl]-1-(2-propyl)-1H-indazole-3-carboxamide oxalate]
The Kb of the first is 2.5-fold lower: 1.58 nM for the first, 3.98 nM for the second.

`CC(C)n1nc(C(=O)NCCN2CCCC2)c2ccccc21` [Example 10, N-[2-(1-pyrrolidinyl)ethyl]-1-(2-propyl)-1H-indazole-3-carboxamide hydrochloride] and `CC(C)n1nc(C(=O)NCCN2CCOCC2)c2ccccc21` [Example 14, N-[2-(4-morpholinyl)ethyl]-1-(2-propyl)-1H-indazole-3-carboxamide hydrochloride] are within 1.5-fold of each other in Kb: 20 nM for the first, 25.1 nM for the second.

Compared with `CC(C)n1nc(C(=O)NCCN2CCN(Cc3ccccc3)CC2)c2ccccc21` [Example 16, N-[2-(4-benzyl-1-piperazinyl)ethyl]-1-(2-propyl)-1H-indazole-3-carboxamidedihydrochloride], `CC(C)n1nc(C(=O)NCCN2CCN(C(=O)c3ccccc3)CC2)c2ccccc21` [Example 18, N-[2-(4-benzoyl-1-piperazinyl)ethyl]-1-(2-propyl)-1H-indazole-3-carboxamide oxalate] is 3.2-fold higher in Kb: 10 nM for the first, 31.6 nM for the second.

First: CC(C)n1nc(C(=O)NCCN2CCC(Cc3ccccc3)CC2)c2ccccc21 [Example 20, N-[2-(4-benzyl-1-piperidinyl)ethyl]-1-(2-propyl)-1H-indazole-3-carboxamideoxalate]
Second: CC(C)n1nc(C(=O)NCCN2CCC(NC(=O)NCc3ccccc3)CC2)c2ccccc21 [Example 34, N-[2-(4-benzylaminocarbonylamino)-1-piperidinyl)ethyl]-1-(2-propyl)-1H-indazole-3-carboxamide oxalate]
The Kb of the first is 10-fold higher: 50.1 nM for the first, 5.01 nM for the second.

First: CC(C)n1nc(C(=O)NCCN2CCc3ccccc3C2)c2ccccc21 [Example 22, N-[2-(1,2,3,4-tetrahydro-2-isoquinolinyl)ethyl]-1-(2-propyl)-1H-indazole-3-carboxamide oxalate]
Second: CC(C)n1nc(C(=O)NCCN2CCC(NC(=O)c3ccccc3)CC2)c2ccccc21 [Example 25, N-[2-(4-benzoylamino-1-piperidinyl)ethyl]-1-(2-propyl)-1H-indazole-3-carboxamide oxalate]
The Kb of the first is 4-fold higher: 10 nM for the first, 2.51 nM for the second.

Going from `CC(C)n1nc(C(=O)NCCN2CCC(N)CC2)c2ccccc21` [Example 23, N-[2-(4-amino-1-piperidinyl)ethyl]-1-(2-propyl)-1H-indazole-3-carboxamide dioxalate] to `CC(=O)NC1CCN(CCNC(=O)c2nn(C(C)C)c3ccccc23)CC1` [Example 28, N-[2-(4-acetylamino-1-piperidinyl)ethyl]-1-(2-propyl)-1H-indazole-3-carboxamide oxalate], the Kb falls from 158 nM to 5.01 nM (32-fold).

Going from `CC(C)n1nc(C(=O)NCCN2CCC(NS(C)(=O)=O)CC2)c2ccccc21` [Example 24, N-[2-(4-methylsulfonylamino-1-piperidinyl)ethyl]-1-(2-propyl)-1H-indazole-3-carboxamide oxalate] to `CCC(=O)NC1CCN(CCNC(=O)c2nn(C(C)C)c3ccccc23)CC1` [Example 29, N-[2-(4-propionylamino-1-piperidinyl)ethyl]-1-(2-propyl)-1H-indazole-3-carboxamide oxalate], the Kb falls from 12.6 nM to 3.16 nM (4-fold).

Compared with `CC(C)n1nc(C(=O)NCCN2CCC(NC(=O)C34CC5CC(CC(C5)C3)C4)CC2)c2ccccc21` [Example 27, N-[2-(4-(1-adamantylcarbonylamino)-1-piperidinyl)ethyl]-1-(2-propyl)-1H-indazole-3-carboxamide oxalate], `CC(C)n1nc(C(=O)NCCN2CCC(NC(=O)C34CC5CC(CC(O)(C5)C3)C4)CC2)c2ccccc21` [Example 37, N-[2-(4-(3-hydroxy-1-adamantylcarbonylamino)-1-piperidinyl)ethyl]-1-(2-propyl)-1H-indazole-3-carboxamide oxalate] is 10-fold higher in Kb: 0.126 nM for the first, 1.26 nM for the second.

`CCCC(=O)NC1CCN(CCNC(=O)c2nn(C(C)C)c3ccccc23)CC1` [Example 30, N-[2-(4-butyrylamino-1-piperidinyl)ethyl]-1-(2-propyl)-1H-indazole-3-carboxamide oxalate] and `CCCCC(=O)NC1CCN(CCNC(=O)c2nn(C(C)C)c3ccccc23)CC1` [Example 31, N-[2-(4-valerylamino-1-piperidinyl)ethyl]-1-(2-propyl)-1H-indazole-3-carboxamide] are within 1.5-fold of each other in Kb: 15.8 nM for the first, 20 nM for the second.

`CC(C)C(=O)NC1CCN(CCNC(=O)c2nn(C(C)C)c3ccccc23)CC1` [Example 32, N-[2-(4-isobutyrylamino-1-piperidinyl)ethyl]-1-(2-propyl)-1H-indazole-3-carboxamide oxalate] and `CC(C)n1nc(C(=O)NCCN2CCC(NC(=O)C(C)(C)C)CC2)c2ccccc21` [Example 33, N-[2-(4-trimethylacetylamino-1-piperidinyl)ethyl]-1-(2-propyl)-1H-indazole-3-carboxamide oxalate] are within 1.5-fold of each other in Kb: 2.51 nM for the first, 3.16 nM for the second.

First: CC(C)n1nc(C(=O)NCCN2CCC(NC(=O)Nc3ccccc3)CC2)c2ccccc21 [Example 35, N-[2-(4-phenylaminocarbonylamino)-1-piperidinyl)ethyl]-1-(2-propyl)-1H-indazole-3-carboxamide oxalate]
Second: CC(C)n1nc(C(=O)NCCN2CCC(NC(=O)Nc3ccc(F)cc3)CC2)c2ccccc21 [Example 36, N-[2-(4-(4-fluorophenylaminocarbonylamino)-1-piperidinyl)ethyl]-1-(2-propyl)-1H-indazole-3-carboxamide oxalate]
The Kb of the first is 2.5-fold lower: 10 nM for the first, 25.1 nM for the second.

`CC(C)n1nc(C(=O)NCCN2CCC(NC(=O)C34CC5CC(C3)C(O)C(C5)C4)CC2)c2ccccc21` (centres unmarked) [Example 38, N-[2-(4-(4-hydroxy-1-adamantylcarbonylamino)-1-piperidinyl)ethyl]-1-(2-propyl)-1H-indazole-3-carboxamide oxalate] gave a Kb of 2 nM.

Same assay, conditions: negative logarithm of concentration that caused a two-fold shift of the serotonin relaxation curve; rat esophagus; 45 min preincubation; ± SEM (number of experiments); read-out: -Log KB (converted)

Molecule `O=C(NCCN1CCCCC1)c1n[nH]c2ccccc12` [Example 1, N-[2-(1-piperidinyl)ethyl]-1H-indazole-3-carboxamide hydrochloride] has a Kb of 31.6 nM.

System: 5-HT4 receptor
Test: not given
Details: presently known compound; cited from earlier work

For `COc1cc(N)c(Cl)cc1C(=O)NC1CCN(CCCOc2ccc(F)cc2)CC1OC` (centres unmarked) [cisapride], the “affinity at the 5-HT4 receptor” value is given as “high affinity”.
